# Experimental data reported in patent publication US10780101B2, “Amide derivatives of squalamine for the treatment of infections” (VIRBAC, priority 2016, dated 2020).
# Read-outs that look alike come from different tables or passages of the source.
# Assays:
# [1] = system: S. aureus Human ATCC 25923; assay: MIC determination, S. aureus human ATCC 25923; format: cell-based; conditions: Staphylococcus aureus, ATCC25923; Gram-positive; Mueller-Hinton medium, 24 h at 37° C.
# Outline: (§1)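 Broth microdilution in Mueller-Hinton medium, inoculum at OD 0.01, compounds (5 mg/mL stock in DMSO/methanol 50/50) serially diluted twofold. Plates incubated 24 h at 37° C. under humid atmosphere, read at OD 620 nm for MIC; duplicates.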
# [2] = system: S. aureus Animal (340); assay: MIC determination, S. aureus animal (340); format: cell-based; conditions: Staphylococcus aureus; Gram-positive; Mueller-Hinton medium, 24 h at 37° C.
# Outline: as §1
# [3] = system: S. intermedius Animal (1051997); assay: MIC determination, S. intermedius animal (1051997); format: cell-based; conditions: Staphylococcus intermedius; Gram-positive; Mueller-Hinton medium, 24 h at 37° C.
# Outline: as §1
# [4] = system: E. faecalis Human ATCC 29212; assay: MIC determination, E. faecalis human ATCC 29212; format: cell-based; conditions: Enterococcus faecalis, ATCC29212; Gram-positive; Mueller-Hinton medium, 24 h at 37° C.
# Outline: as §1
# [5] = system: E. coli Human ATCC 28922; assay: MIC determination, E. coli human ATCC 28922; format: cell-based; conditions: Escherichia coli, ATCC28922; Gram-negative; Mueller-Hinton medium, 24 h at 37° C.
# Outline: as §1
# [6] = system: E. coli Animal (1956); assay: MIC determination, E. coli animal (1956); format: cell-based; conditions: Escherichia coli; Gram-negative; Mueller-Hinton medium, 24 h at 37° C.
# Outline: as §1
# [7] = system: P. aeruginosa Human ATCC 27853; assay: MIC determination, P. aeruginosa human ATCC 27853; format: cell-based; conditions: Pseudomonas aeruginosa, ATCC27853; Gram-negative; Mueller-Hinton medium, 24 h at 37° C.
# Outline: as §1
# [8] = system: P. aeruginosa Animal (1051575); assay: MIC determination, P. aeruginosa animal (1051575); format: cell-based; conditions: Pseudomonas aeruginosa; Gram-negative; Mueller-Hinton medium, 24 h at 37° C.
# Outline: as §1
# [9] = system: CHO-K1 cells; assay: WST1 cytotoxicity test on CHO-K1 cells; format: cell-based, Chinese hamster; conditions: Cricetulus griseus
# Outline: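 CHO-K1 cells pre-grown 24 h, then exposed to increasing compound concentrations in duplicate for 24 h at 37° C, 5% CO2. Viability read after 20 min with 10% WST-1 in PBS at 450 nm; IC50 from nonlinear regression as concentration cutting viability 50%.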
# [10] = system: P. aeruginosa (1051575); assay: Potentiation of doxycycline activity (combination MIC); format: cell-based, Pseudomonas aeruginosa; conditions: in presence of doxycycline 2 μg/mL; 24 hours at 37° C.
# [11] = system: C. albicans; assay: Antifungal activity, cascade microdilution; format: cell-based; conditions: Candida albicans, 24 h, read-out: IC50 (μg/mL) C. albicans
# [12] = CHO-K1, 24 h, read-out: IC50 (μg/mL) CHO
# [13] = CHO-K1, read-out: IC50 (μg/mL) CHO
SMILES,MIC [1] [µg/mL],MIC [2] [µg/mL],MIC [3] [µg/mL],MIC [4] [µg/mL],MIC [5] [µg/mL],MIC [6] [µg/mL],MIC [7] [µg/mL],MIC [8] [µg/mL],"IC50 [9, 12] [µg/mL]","IC50 [9, 13] [µg/mL]",MIC - P. aeruginosa (1051575): content of compound of formula (I) to restore the doxycycline activity (at 2 μg/mL) [10] [µg/mL],IC50 [11] [µg/mL]
"CC(C)NC(=O)CC[C@@H](C)[C@H]1CCC2C3C(CC[C@@]21C)[C@@]1(C)CC[C@H](NCCCN(CCCN)CCCN)CC1C[C@H]3O (stereo partly drawn) [(46), 3β-(tris(3-aminopropyl)amine)-N-isopropylchenodeoxycholamide]",8,2,2,30,> 120,30,60,120,50,50,2,1
"CC(C)NC(=O)CC[C@@H](C)[C@H]1CCC2C3CCC4C[C@@H](NCCCN5CCN(CCCN)CC5)CC[C@]4(C)C3CC[C@@]21C (stereo partly drawn) [(19), 3β-(1,4-bis(3-aminopropyl)piperazine)-N-isopropyllithocholamide]",8,4,4,15,30,30,120,30,12,12,8,4
"CC(C)N(C(=O)CC[C@@H](C)[C@H]1CCC2C3C(CC[C@@]21C)[C@@]1(C)CC[C@H](NCCCNCCCNCCCN)CC1C[C@H]3O)C(C)C (stereo partly drawn) [(40), 3β-norspermino-N,N-diisopropylchenodeoxycholamide]",4,2,2,2,32,8,8,8,,,2,1
"CC(C)NC(=O)CC[C@@H](C)[C@H]1CCC2C3C(C[C@H](O)[C@@]21C)[C@@]1(C)CC[C@H](NCCCNCCCNCCCN)CC1C[C@H]3O (stereo partly drawn) [(4), 3β-norspermino-N-isopropylcholamide]",8,16,4,32,16,32,64,32,65,170,1,8
"C[C@H](CCC(=O)NC1CCCCC1)[C@H]1CCC2C3C(CC[C@@]21C)[C@@]1(C)CC[C@H](NCCCN(CCCN)CCCN)CC1C[C@H]3O (stereo partly drawn) [(47), 3β-(tris(3-aminopropyl)amine)-N-cyclohexylchenodeoxycholamide]",4,8,8,8,130,32,130,32,,,2,2
"CC(C)N(C(=O)CC[C@@H](C)[C@H]1CCC2C3C(CC[C@@]21C)[C@@]1(C)CC[C@H](NCCCN(CCCN)CCCN)CC1C[C@H]3O)C(C)C (stereo partly drawn) [(56), 3β-(tris(3-aminopropyl)amine)-N,N-diisopropylchenodeoxycholamide]",4,4,4,2,65,16,130,65,,,2,4
"CCN(CC)C(=O)CC[C@@H](C)[C@H]1CCC2C3C(CC[C@@]21C)[C@@]1(C)CC[C@H](NCCCNCCCCNCCCN)CC1C[C@H]3O (stereo partly drawn) [Compound (34), 3β-spermino-N,N-diethylchenodeoxycholamide]",4,4,2,2,8,8,16,16,50,50,2,0.5
"CC(C)NC(=O)CC[C@@H](C)[C@H]1CCC2C3C(CC[C@@]21C)[C@@]1(C)CC[C@H](NCCCNCCCCN)CC1C[C@H]3O (stereo partly drawn) [(52), 3β-spermidino-N-isopropylchenodeoxycholamide]",7,4,2,14,112,28,56,112,80,48,3.5,4
"CC(C)NC(=O)CC[C@@H](C)[C@H]1CCC2C3C(CC[C@@]21C)[C@@]1(C)CC[C@H](NCCCNCCCCNCCCN)CC1C[C@H]3O (stereo partly drawn) [Compound (32), 3β-spermino-N-isopropylchenodeoxycholamide]",7,2,0.5,7,15,31,30,15,34,13,1,2
"CC(C)NC(=O)CC[C@@H](C)[C@H]1CCC2C3CCC4C[C@@H](NCCCNCCCNCCCN)CC[C@]4(C)C3C[C@H](O)[C@@]21C (stereo partly drawn) [Compound (1), 3β-norspermino-N-isopropyldeoxycholamide]",4,2,0.5,8,8,8,8,8,42,33,1,0.5
